According to PMC5329948, “Caspase vinyl sulfone small molecule inhibitors prevent axonal degeneration in human neurons and reverse cognitive impairment in Caspase-6-overexpressing mice” (Molecular Neurodegeneration, 2017):
“And” between values parts separate entries of the source, which are not always exact repeats. Equal entries are not always repeated.

Assay: Blood-brain barrier permeability by LC/MS-MS after carotid artery injection
Format: in vivo, mouse
Conditions: for concentration at 5 min: male, Casp6-expressing transgenic mice, mouse, in vivo
Method: Only males were used and littermates from each genotype (wild type (WT)/WT, WT/Cre, & knock-in (KI/)Cre) were tested together. The experimenter was blind to genotype and treatment groups. Mice were administered 20 mg/kg NWL-117 or physiological saline (0.9% NaCl) by intraperitoneal injections two times 48 h apart. […] Blood brain barrier permeability of NWL-117 caspase inhibitor: Briefly, 18–22 month old Casp6 mice were anesthetised with isoflurane, warmed with a heating blanket, and their physiological vitals (heart rate, body temperature, and respiration) monitored. The skin over the mouse’s neck was shaved, xylocaine applied, and an incision was made along the midline. Under a surgical microscope, the right carotid artery was gently separated from surrounding tissue. Two suture threads were placed at the proximal and distal ends of the carotid, and a small incision was made along the carotid wall. A micro-catheter (attached to a 1 ml syringe controlled by a micropump) was inserted and pushed to the entrance of the internal carotid artery. The catheter was secured in place using suture thread. NWL-117 (20 mg/kg) was infused via the micro-catheter using a pump set at 50 μL/min (total volume between 64 μL and 130 μL). After 5 min, blood was collected by intra-cardiac puncture, the mouse was perfused through the heart with ice cold saline for 2–3 min. The brain was removed and hippocampi were dissected and frozen on dry ice and stored. Samples were sent to the Biopharmacy platform at the University of Montreal (Quebec, Canada) for liquid chromatography and tandem mass spectrometry analysis. The integrity of the blood-brain barrier was confirmed by injecting 3% Evan’s blue solution in 20 month old Casp6 mice. Mouse cognitive analysis by novel object recognition: Mice were handled during 5 min for one week prior to behavioral tests. Novel object recognition (NOR) task was administered in three phases: habituation, familiarization (pre-exposure), and test phase. For habituation, mice were placed in the NOR box (80 cm x 80 cm, Stoelting Co, Wood Dale, IL, USA) for 5 min. After 24 h, the pre-exposure phase was initiated by allowing the animals to explore two identical objects inside the NOR box. Then, following a 2 h gap, mice were re-introduced to the NOR box which now contained a familiar and a novel object. The position of the novel object was counterbalanced between animals to avoid any bias related to a preference in the location of the new object and the use of potential confounding spatial cues. The objects were located in the middle of the NW and SE quadrants of the box, equidistantly from the box corners and from each other. The mice were placed in the middle of the SW quadrant. Washing the box and objects with 70% ethanol eliminated odour cues. The number of times touching each object was manually recorded, while the total distance, percent time moving, and number of entries into virtual cells were recorded using the HVS 2100 automated video tracking system (HVS Image, Buckingham, UK). Animals whose exploration was considered insufficient to allow recognition (<10 s per object) during the familiarization phase were excluded from analysis. Different object sets were used in the pre- and post-tests. Immunohistochemistry on mouse brain slices: Following behavioural analysis, animals were anaesthetized under isoflurane and perfused intracardially with ice cold saline for 7 min and 4% paraformaldehyde for 20 min. […]

[1] = Casp6 mice, 20 mg/kg carotid artery injection, 5 min, one value per animal, 20 mg/kg

With `CCC(C)[C@H](NC(=O)[C@H](CCC(=O)O)NC(=O)[C@@H](NC(=O)OCc1ccccc1)C(C)C)C(=O)N[C@H](/C=C/S(C)(=O)=O)CC(=O)O` (some centres unmarked) [NWL-117] the Hippocampus concentration [1] was 193 nM and 816 nM and 67.9 nM and 356 nM and 879 nM, the Plasma concentration [1] was 48.521 µM and 3.416 µM and 8.998 µM and 7.408 µM and 25.425 µM and the “Ratio of [hippocampal]/[plasma]” value [1] was 0.004 and 0.239 and 0.008 and 0.048 and 0.035. For the same molecule, the concentration at 5 min was 3.4 to 48 µM and the concentration at 5 min (20 mg/kg) was 0.0679 to 0.879 µM.
